Measurements as given in publication PMC5218480 (PLoS ONE, 2017).

System: MV-4-11 cells
Experiment: Gene expression microarray analysis (Affymetrix PrimeView) and GSEA
Type: cell-based, human
Design: RFU PODN (11730768_x_at) / Fold change /veh PODN (11730768_x_at) / RFU LINC00158 (11744669_a_at) / Fold change /veh LINC00158 (11744669_a_at) / RFU DUSP10 (11751237_a_at) / Fold change /veh DUSP10 (11751237_a_at) / RFU ID3 (11757404_x_at) / Fold change /veh ID3 (11757404_x_at) / RFU PLEKHG5 (11737974_s_at) / Fold change /veh PLEKHG5 (11737974_s_at) / RFU LRRC4B (11730491_at) / Fold change /veh LRRC4B (11730491_at) / RFU GIMAP4 (11747438_a_at) / Fold change /veh GIMAP4 (11747438_a_at) / RFU KRT8 (11758183_x_at) / Fold change /veh KRT8 (11758183_x_at) / RFU CNN1 (11734310_a_at) / Fold change /veh CNN1 (11734310_a_at) / RFU VPS37D (11726825_at) / Fold change /veh VPS37D (11726825_at) / RFU C10orf10 (11716522_x_at) / Fold change /veh C10orf10 (11716522_x_at) / RFU KIR2DL2 /// KIR2DL4 /// KIR2DL5A /// KIR2DL5B /// KIR2DS1 /// KIR2DS2 /// KIR2DS3 /// KIR2DS4 /// KIR3DL3 /// KIR3DL3 /// KIR3DS1 (11738374_at) / Fold change /veh KIR2DL2 /// KIR2DL4 /// KIR2DL5A /// KIR2DL5B /// KIR2DS1 /// KIR2DS2 /// KIR2DS3 /// KIR2DS4 /// KIR3DL3 /// KIR3DL3 /// KIR3DS1 (11738374_at) / RFU C1QL1 (11718748_at) / Fold change /veh C1QL1 (11718748_at) / RFU TMPRSS4 (11747572_a_at) / Fold change /veh TMPRSS4 (11747572_a_at) / RFU HAMP (11756126_x_at) / Fold change /veh HAMP (11756126_x_at) / RFU RNFT2 (11725882_a_at) / Fold change /veh RNFT2 (11725882_a_at) / RFU NR4A2 (11747474_a_at) / Fold change /veh NR4A2 (11747474_a_at) / RFU ABCC12 (11746883_a_at) / Fold change /veh ABCC12 (11746883_a_at) / RFU TMEM136 (11760407_x_at) / Fold change /veh TMEM136 (11760407_x_at) / RFU CLDN22 /// WWC2 (11732394_at) / Fold change /veh CLDN22 /// WWC2 (11732394_at) / RFU HLA-DPB1 (11760878_x_at) / Fold change /veh HLA-DPB1 (11760878_x_at) / RFU SPINT1 (11716480_a_at) / Fold change /veh SPINT1 (11716480_a_at) / RFU GAP43 (11754022_s_at) / Fold change /veh GAP43 (11754022_s_at) / RFU A4GNT (11735810_at) / Fold change /veh A4GNT (11735810_at) / RFU PRB3 (11715151_x_at) / Fold change /veh PRB3 (11715151_x_at) / RFU TUBB4B (11761932_at) / Fold change /veh TUBB4B (11761932_at) / RFU CAPN14 (11732068_a_at) / Fold change /veh CAPN14 (11732068_a_at) / RFU TMCC2 (11721928_a_at) / Fold change /veh TMCC2 (11721928_a_at) / RFU IRGQ (11745062_a_at) / Fold change /veh IRGQ (11745062_a_at) / RFU FAM174B (11720279_a_at) / Fold change /veh FAM174B (11720279_a_at) / RFU TMPRSS4 (11748680_a_at) / Fold change /veh TMPRSS4 (11748680_a_at) / RFU FAM212B (11763350_a_at) / Fold change /veh FAM212B (11763350_a_at) / RFU PLEKHG5 (11743358_a_at) / Fold change /veh PLEKHG5 (11743358_a_at) / RFU ZSCAN30 (11745921_a_at) / Fold change /veh ZSCAN30 (11745921_a_at) / RFU CMKLR1 (11741424_a_at) / Fold change /veh CMKLR1 (11741424_a_at) / RFU LOC101060620 /// MAPK8IP1 (11723275_at) / Fold change /veh LOC101060620 /// MAPK8IP1 (11723275_at) / RFU SPTSSB (11747773_x_at) / Fold change /veh SPTSSB (11747773_x_at) / RFU PRSS12 (11739890_at) / Fold change /veh PRSS12 (11739890_at) / RFU BIN1 (11741810_x_at) / Fold change /veh BIN1 (11741810_x_at) / RFU WNT11 (11732464_a_at) / Fold change /veh WNT11 (11732464_a_at) / RFU C10orf10 (11716521_a_at) / Fold change /veh C10orf10 (11716521_a_at) / RFU C5orf56 (11738089_at) / Fold change /veh C5orf56 (11738089_at) / RFU CYB561 (11721691_x_at) / Fold change /veh CYB561 (11721691_x_at) / RFU ANKRD19P (11752326_a_at) / Fold change /veh ANKRD19P (11752326_a_at) / RFU OR2T12 /// OR2T33 /// OR2T8 (11738714_s_at) / Fold change /veh OR2T12 /// OR2T33 /// OR2T8 (11738714_s_at) / RFU VCAN (11748164_a_at) / Fold change /veh VCAN (11748164_a_at) / RFU JSRP1 (11732532_at) / Fold change /veh JSRP1 (11732532_at) / RFU KRTAP10-11 (11738290_x_at) / Fold change /veh KRTAP10-11 (11738290_x_at) / RFU MYO3A (11730013_a_at) / Fold change /veh MYO3A (11730013_a_at) / RFU EBF3 (11725865_a_at) / Fold change /veh EBF3 (11725865_a_at) / RFU CAMK2N1 (11719241_x_at) / Fold change /veh CAMK2N1 (11719241_x_at) / RFU C5orf56 (11738088_a_at) / Fold change /veh C5orf56 (11738088_a_at) / RFU OLFML3 (11715873_a_at) / Fold change /veh OLFML3 (11715873_a_at) / RFU LOC100653217 /// NTM (11731650_a_at) / Fold change /veh LOC100653217 /// NTM (11731650_a_at) / RFU MAPK11 (11762145_a_at) / Fold change /veh MAPK11 (11762145_a_at) / RFU FIZ1 (11724087_x_at) / Fold change /veh FIZ1 (11724087_x_at) / RFU OASL (11726364_x_at) / Fold change /veh OASL (11726364_x_at) / RFU SOX15 (11748057_x_at) / Fold change /veh SOX15 (11748057_x_at) / RFU CD79A (11719716_a_at) / Fold change /veh CD79A (11719716_a_at) / RFU HIST1H1D (11736915_at) / Fold change /veh HIST1H1D (11736915_at) / RFU CASKIN2 (11723855_a_at) / Fold change /veh CASKIN2 (11723855_a_at) / RFU LOC730098 (11760151_x_at) / Fold change /veh LOC730098 (11760151_x_at) / RFU OR4N2 (11742367_at) / Fold change /veh OR4N2 (11742367_at) / RFU PRRT2 (11749266_a_at) / Fold change /veh PRRT2 (11749266_a_at) / RFU SNX32 (11753110_a_at) / Fold change /veh SNX32 (11753110_a_at) / RFU CDHR5 (11726645_a_at) / Fold change /veh CDHR5 (11726645_a_at) / RFU RCAN1 (11760418_a_at) / Fold change /veh RCAN1 (11760418_a_at) / RFU FAM167A (11723789_a_at) / Fold change /veh FAM167A (11723789_a_at) / RFU FAM26E (11764081_at) / Fold change /veh FAM26E (11764081_at) / RFU ISYNA1 (11749810_s_at) / Fold change /veh ISYNA1 (11749810_s_at) / RFU ACY1 (11761880_at) / Fold change /veh ACY1 (11761880_at) / RFU 11764098_at / Fold change /veh 11764098_at / RFU SAMD14 (11745864_x_at) / Fold change /veh SAMD14 (11745864_x_at) / RFU NPB (11741838_a_at) / Fold change /veh NPB (11741838_a_at) / RFU TMPRSS6 (11731388_a_at) / Fold change /veh TMPRSS6 (11731388_a_at) / RFU KRTAP10-2 (11738614_at) / Fold change /veh KRTAP10-2 (11738614_at) / RFU ARHGAP8 /// PRR5-ARHGAP8 (11727945_x_at) / Fold change /veh ARHGAP8 /// PRR5-ARHGAP8 (11727945_x_at) / RFU KRTAP5-7 /// NADSYN1 (11734609_at) / Fold change /veh KRTAP5-7 /// NADSYN1 (11734609_at) / RFU RASL12 (11751679_a_at) / Fold change /veh RASL12 (11751679_a_at) / RFU CDKN2B (11736163_a_at) / Fold change /veh CDKN2B (11736163_a_at) / RFU PRF1 (11729649_at) / Fold change /veh PRF1 (11729649_at) / RFU, ZNF638 /// ZNF638-IT1 / Fold change vs veh, ZNF638 /// ZNF638-IT1 / RFU, PANK3 / Fold change vs veh, PANK3 / RFU, SH3YL1 / Fold change vs veh, SH3YL1 / RFU, ZEB2 / Fold change vs veh, ZEB2 / RFU, NRIP1 / Fold change vs veh, NRIP1 / RFU, PTTG1IP / Fold change vs veh, PTTG1IP / RFU, CAPN2 / Fold change vs veh, CAPN2 / RFU, MED14 / Fold change vs veh, MED14 / RFU, SNORA58 / Fold change vs veh, SNORA58 / RFU, C1orf63 / Fold change vs veh, C1orf63 / RFU, LRRFIP1 / Fold change vs veh, LRRFIP1 / RFU, NDUFAF7 / Fold change vs veh, NDUFAF7 / RFU, SLC12A2 / Fold change vs veh, SLC12A2 / RFU, IBTK / Fold change vs veh, IBTK / RFU, ESF1 / Fold change vs veh, ESF1 / Fold change vs veh, TMEM50B / RFU, TAOK1 / Fold change vs veh, TAOK1 / RFU, ACBD3 / Fold change vs veh, ACBD3 / RFU, TMA16 / Fold change vs veh, TMA16 / RFU, RWDD3 / Fold change vs veh, RWDD3 / RFU, BCAT1 / Fold change vs veh, BCAT1 / RFU, EDEM3 / Fold change vs veh, EDEM3 / RFU, TMEM33 / Fold change vs veh, TMEM33 / RFU, WDR75 / Fold change vs veh, WDR75 / RFU, AHCTF1 / Fold change vs veh, AHCTF1 / RFU, TFRC / Fold change vs veh, TFRC / RFU, ZDHHC17 / Fold change vs veh, ZDHHC17 / RFU, NOM1 / Fold change vs veh, NOM1 / RFU, ARL8B / Fold change vs veh, ARL8B / RFU, ZBTB11 / Fold change vs veh, ZBTB11 / RFU, TAMM41 / Fold change vs veh, TAMM41 / RFU, KIAA1704 /// LOC100996395 / Fold change vs veh, KIAA1704 /// LOC100996395 / RFU, ING1 / Fold change vs veh, ING1 / RFU, TRMT61B / Fold change vs veh, TRMT61B / RFU, FUBP3 / Fold change vs veh, FUBP3 / RFU, TP53 / Fold change vs veh, TP53 / RFU, TNKS2 / Fold change vs veh, TNKS2 / RFU, ZFP14 / Fold change vs veh, ZFP14 / RFU, ACTR2 / Fold change vs veh, ACTR2 / RFU, PPP3R1 / Fold change vs veh, PPP3R1 / RFU, PIK3R1 / Fold change vs veh, PIK3R1 / RFU, HNRNPA1 / Fold change vs veh, HNRNPA1 / RFU, RNF170 / Fold change vs veh, RNF170 / RFU, ZNF28 / Fold change vs veh, ZNF28 / RFU, RNGTT / Fold change vs veh, RNGTT / RFU, OGT / Fold change vs veh, OGT / RFU, BRD1 / Fold change vs veh, BRD1 / RFU, MARS / Fold change vs veh, MARS / RFU, ZNF655 / Fold change vs veh, ZNF655 / RFU, FAHD1 / Fold change vs veh, FAHD1 / RFU, BDP1 / Fold change vs veh, BDP1 / RFU, LRRCC1 / Fold change vs veh, LRRCC1 / RFU, ARID1A / Fold change vs veh, ARID1A / RFU, ZNF146 / Fold change vs veh, ZNF146 / RFU, ZNF330 / Fold change vs veh, ZNF330 / RFU, GPN3 / Fold change vs veh, GPN3 / RFU, C9orf123 / Fold change vs veh, C9orf123 / RFU, N4BP2L2 / Fold change vs veh, N4BP2L2 / RFU, ARFIP1 / Fold change vs veh, ARFIP1 / RFU, FAM179B / Fold change vs veh, FAM179B / RFU, BCL10 / Fold change vs veh, BCL10 / RFU, UHRF1BP1L / Fold change vs veh, UHRF1BP1L / RFU, BET1 / Fold change vs veh, BET1 / RFU, CNOT2 / Fold change vs veh, CNOT2 / RFU, ZNF268 / Fold change vs veh, ZNF268 / Fold change vs veh, ZNF507 / RFU, DGCR2 / Fold change vs veh, DGCR2 / RFU, WDSUB1 / Fold change vs veh, WDSUB1 / Fold change vs veh, HSP90B1 /// MIR3652 / RFU, ADSS / Fold change vs veh, ADSS / RFU, GK / Fold change vs veh, GK / RFU, ZNF148 / Fold change vs veh, ZNF148 / RFU, TAF9 / Fold change vs veh, TAF9 / RFU, SLC1A5 / Fold change vs veh, SLC1A5 / RFU, SLMO2 / Fold change vs veh, SLMO2 / RFU, ABCC4 / Fold change vs veh, ABCC4 / RFU, LOC101060439 /// RAP1B / Fold change vs veh, LOC101060439 /// RAP1B / RFU, RFX7 / Fold change vs veh, RFX7 / RFU, GTPBP10 / Fold change vs veh, GTPBP10 / RFU, CNEP1R1 / Fold change vs veh, CNEP1R1 / RFU, BIVM-ERCC5 /// ERCC5 / Fold change vs veh, BIVM-ERCC5 /// ERCC5 / RFU, ILF3 / Fold change vs veh, ILF3 / RFU 11762660_at / Fold change /veh 11762660_at / RFU VCAN (11757783_s_at) / Fold change /veh VCAN (11757783_s_at) / RFU DDX43 (11728927_at) / Fold change /veh DDX43 (11728927_at) / RFU KRT8 (11758188_x_at) / Fold change /veh KRT8 (11758188_x_at) / RFU NKD1 (11759106_at) / Fold change /veh NKD1 (11759106_at) / RFU SRD5A1 (11742802_a_at) / Fold change /veh SRD5A1 (11742802_a_at) / RFU TPSAB1 /// TPSB2 (11721975_s_at) / Fold change /veh TPSAB1 /// TPSB2 (11721975_s_at) / RFU GSTM3 (11746129_a_at) / Fold change /veh GSTM3 (11746129_a_at) / RFU IL23R (11737362_x_at) / Fold change /veh IL23R (11737362_x_at) / RFU TMEM51 (11727254_a_at) / Fold change /veh TMEM51 (11727254_a_at) / RFU PIWIL2 (11732686_x_at) / Fold change /veh PIWIL2 (11732686_x_at) / RFU ORM1 (11744905_x_at) / Fold change /veh ORM1 (11744905_x_at) / RFU CCDC152 (11743942_at) / Fold change /veh CCDC152 (11743942_at) / RFU ECM1 (11717891_a_at) / Fold change /veh ECM1 (11717891_a_at) / RFU IL23R (11748794_a_at) / Fold change /veh IL23R (11748794_a_at) / RFU TNFAIP8L3 (11732012_x_at) / Fold change /veh TNFAIP8L3 (11732012_x_at) / RFU MBOAT4 (11741988_at) / Fold change /veh MBOAT4 (11741988_at) / RFU 11764193_at / Fold change /veh 11764193_at / RFU TMEM53 (11763286_at) / Fold change /veh TMEM53 (11763286_at) / RFU MAGEB2 (11727129_at) / Fold change /veh MAGEB2 (11727129_at) / RFU TMEM200A (11744735_a_at) / Fold change /veh TMEM200A (11744735_a_at) / RFU CCDC152 (11751479_a_at) / Fold change /veh CCDC152 (11751479_a_at) / RFU FAM211A (11726209_a_at) / Fold change /veh FAM211A (11726209_a_at) / RFU RGS16 (11746705_a_at) / Fold change /veh RGS16 (11746705_a_at) / RFU VCAN (11755009_s_at) / Fold change /veh VCAN (11755009_s_at) / RFU RHOB (11743442_s_at) / Fold change /veh RHOB (11743442_s_at) / RFU RGS16 (11720943_a_at) / Fold change /veh RGS16 (11720943_a_at) / RFU RGS16 (11720944_at) / Fold change /veh RGS16 (11720944_at) / RFU, VPS4B / Fold change vs veh, VPS4B / RFU, CREB1 / Fold change vs veh, CREB1 / RFU, DNAJC13 / Fold change vs veh, DNAJC13 / RFU, GNAQ / Fold change vs veh, GNAQ / RFU, CDK5R1 / Fold change vs veh, CDK5R1 / RFU, ZRANB3 / Fold change vs veh, ZRANB3 / RFU, CUL4A / Fold change vs veh, CUL4A / RFU, CCNY / Fold change vs veh, CCNY / RFU, UFL1 / Fold change vs veh, UFL1 / RFU, COG3 / Fold change vs veh, COG3 / RFU, DIAPH2 / Fold change vs veh, DIAPH2 / RFU, SKA2 / Fold change vs veh, SKA2 / RFU, AFF3 / Fold change vs veh, AFF3 / RFU, LMF1 / Fold change vs veh, LMF1 / RFU, IPO11 / Fold change vs veh, IPO11 / RFU, DFFB / Fold change vs veh, DFFB / RFU, FOXP1 / Fold change vs veh, FOXP1 / RFU, CARD8 / Fold change vs veh, CARD8 / RFU, STRN3 / Fold change vs veh, STRN3 / RFU, ADK / Fold change vs veh, ADK / RFU, RASSF2 / Fold change vs veh, RASSF2 / RFU, WIPF1 / Fold change vs veh, WIPF1 / RFU, LARP1B / Fold change vs veh, LARP1B / RFU, RASA1 / Fold change vs veh, RASA1 / RFU, RB1 / Fold change vs veh, RB1 / RFU, PPFIA1 / Fold change vs veh, PPFIA1 / RFU, MAT2A / Fold change vs veh, MAT2A / RFU, CCT5 / Fold change vs veh, CCT5 / RFU, WDR92 / Fold change vs veh, WDR92 / RFU, CUX1 / Fold change vs veh, CUX1 / RFU, TTC7A / Fold change vs veh, TTC7A / RFU, TMEM135 / Fold change vs veh, TMEM135 / RFU, DEPTOR / Fold change vs veh, DEPTOR / RFU, CPM / Fold change vs veh, CPM / RFU, DNAJB6 / Fold change vs veh, DNAJB6 / RFU, CACNA2D3 / Fold change vs veh, CACNA2D3 / RFU, DTX4 / Fold change vs veh, DTX4 / RFU, TFCP2 / Fold change vs veh, TFCP2 / RFU, GMCL1 /// GMCL1P1 / Fold change vs veh, GMCL1 /// GMCL1P1 / RFU, AEBP2 / Fold change vs veh, AEBP2 / RFU, SNHG1 /// SNORD22 /// SNORD25 /// SNORD26 /// SNORD27 /// SNORD28 /// SNORD29 /// SNORD31 / Fold change vs veh, SNHG1 /// SNORD22 /// SNORD25 /// SNORD26 /// SNORD27 /// SNORD28 /// SNORD29 /// SNORD31 / Fold change (Aza/veh), C12orf56 (ProbeSet 11735607_a_at) / Fold change (ACY-1035/veh), C12orf56 (ProbeSet 11735607_a_at) / Fold change (Aza/veh), FGFR1OP (ProbeSet 11751329_s_at) / Fold change (ACY-1035/veh), FGFR1OP (ProbeSet 11751329_s_at) / Fold change (Aza/veh), VPS36 (ProbeSet 11739960_a_at) / Fold change (ACY-1035/veh), VPS36 (ProbeSet 11739960_a_at) / RFU SYPL1 (11715823_x_at) / Fold change /veh SYPL1 (11715823_x_at) / RFU IGFBP7 (11715501_s_at) / Fold change /veh IGFBP7 (11715501_s_at) / RFU REEP3 (11722064_at) / Fold change /veh REEP3 (11722064_at) / RFU IGLL1 (11728026_x_at) / Fold change /veh IGLL1 (11728026_x_at): dose or concentration left out as unconfirmed
Details: MV-4-11 cells, 48 hours

## Nc1ccc(-c2cccs2)cc1NC(=O)c1ccc2c(c1)cc(C1CC1)n2CCN1CCOCC1 [ACY-1035]
  Fold change /veh C1QL1 (11718748_at): 0.88
